Measurements from paper PMC9827864, “In Situ Inhibitor Synthesis and Screening by Fluorescence Polarization: An Efficient Approach for Accelerating Drug Discovery” (Angewandte Chemie (International Ed. in English), 2022).

Legend:
[1] = biological target: T1, human prolyl hydroxylase 2 (PHD2) (Homo sapiens, UniProt Q9GZT9); experiment: Fluorescence polarization (FP) competition assay of PHD2; settings: purified compounds, 20 nM PHD2 (181-426), 30 nM probe, Cheng-Prusoff, mean±SD, read-out: Ki, binding affinity for PHD2
T1 construct: (181-426); made in house
Procedure: 2.1 Fluorescence polarization (FP) competition assay of PHD2 [4]
FP assays were performed using a SPARK Multi-Mode Microplate Reader (Tecan) with excitation and emission filters appropriate for the fluorophore used in the binding experiment. Fluorescence polarization experiments were performed in 384-well, flat bottom, black assay plates (#3575, Corning) in a final volume of 60 µL. The final assay buffer contained: 30 nM fluorescence Probe, 20 nM PHD2 (181-426), 10 mM HEPES, pH 7.4, 150 mM NaCl, 0.05% Tween-20, and at the 1% DMSO (except for DMSO tolerance experiments, in which different DMSO concentrations were used as indicated). All plates measured in fluorescence polarization assays were incubated for a minimum of 30 min at RT. Fluorescence polarization was measured from the top of the well with a Tecan SPARK plate reader with polarized filters and optical modules for fluorescein (λex = 485 nm ± 25 nm, λem = 535 nm ± 25 nm). The standard error of the mean (SEM) values, were calculated by dividing the sample standard deviation by the square root of the sample size and are recorded as ± values for IC 50. Dose-dependent experiments were performed in th e same manner using at least 10 concentrations of the test compounds in 3 -fold serial dilutions from 100 µM. For each assay, negative controls (equivalent to 0% displacement) contained the fluorescent ligand, PHD2 (181 -426), and 20 µL FP buffer; blank cont rols contained only the fluorescent ligand and 40 µL buffer.
The reaction mixtures were incubated at RT for 60 min, then total fluorescence and fluorescence polarization measurements wer e taken. The percentage inhibition was calculated using Equation 1, where mPfree is the signal for the free probe (blank control) and mPbound is the signal for the bound probe (negative control).
IC50s were determined for duplicate measurements by non-linear least-squares analysis using GraphPad Prism 8.0.
The Ki values of the inhibitors were calculated using the Cheng-Prusoff equation.[5] Cheng-Prusoff equation: Ki = IC50 / (1 + [L]/Kd)
The Kd value was determined using a constant concentration of probe and titrating with PHD2 protein at increasing concentrations. [L] represents the concentration of the […] used in the FP assay. […]

ICR mice = experiment: Acute oral toxicity assay; format: in vivo; settings: 400 mg kg−1 oral, once
[2] = Acute oral toxicity assay; format: in vivo; settings: both sexes, mouse, in vivo, 400 mg·kg-1; ICR mice, single oral administration
[3] = Metabolic stability in human liver microsomes; format: in vitro ADME
[4] = system: C57BL/6J mouse models of anemia induced by cisplatin; experiment: Improvement of anemia induced by cisplatin administration; format: in vivo; settings: cisplatin-induced anemia mice; for Improvement of anemia (%): po
Procedure: 5. Pharmacodynamic assay
The experimental mice (SPF, […], male) were obtained from SPF (Beijing) Biotechnology Co., Ltd (permit number: SCXK (Jing) 2019-0010). All animal related experiments were conducted under a China Pharmaceutical University (the certification of using the housing facility of laboratory animals: SYXK (Su) 2018 -0019) IACUC approved protocol in compliance with the guide for the care and use of laboratory animals (number: 202013705). […]
Representative compounds and Roxadustat were formulated in normal saline solution. […]
China Pharmaceutical University (ADVIA 2120 hematology system). […]
5.3 Improvement of anemia induced by cisplatin administration
C57BL/6J mice were treated with cisplatin ( po, 7 mg·kg-1) on days 0, 7, 14, and 28 of the experiment. On the 29th day, the animals were randomized into sham, control, and treated groups (n=5). […]
treatment anemia caused by cisplatin. The mice were treated with the compounds every alternate day for 30 days. the test sample is obtained via orbital venous plexus. The hemoglobin of samples was analyzed in the center for new drug safety evaluation and research at China Pharmaceutical University (ADVIA 2120 hematology system).

[5] = system: EPO gene expression in Hep3B cells; experiment: RT-qPCR assay of EPO mRNA; format: cell-based, human; settings: reference gene HPRT

T1 sequence (Q9GZT9 181-426): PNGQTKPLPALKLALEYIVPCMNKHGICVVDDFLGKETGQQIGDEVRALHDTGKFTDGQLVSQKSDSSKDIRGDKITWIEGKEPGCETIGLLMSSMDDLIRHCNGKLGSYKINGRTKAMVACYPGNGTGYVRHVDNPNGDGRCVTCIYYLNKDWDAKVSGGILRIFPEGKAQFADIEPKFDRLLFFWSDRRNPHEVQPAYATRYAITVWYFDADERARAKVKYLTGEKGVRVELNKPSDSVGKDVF

O=C(N/N=C/c1cccc(O)c1Cl)c1cnc(-c2cccnn2)[nH]c1=O [compound 17]
Ki [1]: 27 ± 2 nM | acute oral toxicity findings (body weight, organ/body weight ratio, ALT, AST, BUN, CRE) (ICR mice): no obvious abnormality | LD50 [2]: > 400 mg/kg | compound present (remaining) in liver microsomes ([3]; after 50 min, 1 μM, 0.5 mg/mL): > 80% | half-life at 1 μM ([3]; pH 7.4, read-out: t1/2 in liver microsomes): > 1.67 h | hemoglobin (Hb) levels ([4]; po 5, 10, 20 mg kg−1, every alternate day for 30 days): increased in a dose‐dependent manner | Improvement of anemia (%) ([4]; 5 mg·kg^-1): 31.8% | Improvement of anemia (%) ([4]; 10 mg·kg^-1): 51.5% | Improvement of anemia (%) ([4]; 20 mg·kg^-1): 90.9% | EPO mRNA expression by RT-qPCR [5]: increases EPO mRNA in a concentration‐dependent manner with comparable efficiency to Roxadustat
